Results taken from publication PMC7503767, “Alkoxyamines Designed as Potential Drugs against Plasmodium and Schistosoma Parasites” (Molecules, 2020).
Read-outs that look alike come from different tables or passages of the source. Marks after values point to notes of the source that are not given here.

Key:
Adult S. mansoni = test: In vitro antischistosomal activity on adult worms; assay type: cell-based, Schistosoma mansoni; conditions: for Time for the death of 100% worms / S. mansoni Mean Survival Time: adult S. mansoni, observation up to 8 h; for S. mansoni Mean Survival Time: single dose 100 µg/mL
Outline: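 NMRI-strain adult worms, perfused from hamsters 42–47 days post-infection, held in RPMI 1640 (25 mM Hepes) with Tween 80/DMSO vehicle at 37 °C, 5% CO2 and exposed to 100 µg/mL drug, in duplicate. Moving worms counted hourly up to 8 h; no contraction over 30 s scored dead. Mean survival time from Kaplan–Meier analysis.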

[1] = test system: P. falciparum F32-TEM (artemisinin-sensitive strain); test: Standard chemosensitivity assay (SYBR Green I), F32-TEM; assay type: cell-based, Plasmodium falciparum; conditions: Plasmodium falciparum
Procedure: (§1) F32-ART5, an artemisinin-resistant strain and F32-TEM, an artemisinin-sensitive strain, were obtained from the parental clone F32-Tanzania, respectively under regular drug pressure cycles of increasing artemisinin concentrations for 5 years and without any artemisinin pressure. After these drug pressure cycles allowing selection of the F32-ART5 strain, regular drug pressures were performed to maintain its phenotype. […] Briefly, parasites were cultured in RPMI 1640 (Fisher Scientific, Waltham, Illkirch-Graffenstaden, France) supplemented with 5% type AB human serum (Etablissement français du Sang, Toulouse, France) and adjusted at a parasitemia of 1% and 2% hematocrit with type O human at 37 °C and 5% CO2. Parasite development was daily monitored by Giemsa staining.
(§2) Briefly, for the determination of IC50 values, the chemosensitivity assay was carried out in 96-well culture plates on D-sorbitol ring-stage synchronized parasites and antiplasmodial activities were evaluated using the SYBR Green I method. Drug testing was performed in triplicates in a dose range of 5 to 7 concentrations. […] Parasites were left to proliferate with the given compounds for 48 h at 37 °C and 5% CO2. After this period, pellets were washed 3 times in sterile PBS prior to putting the plates at −20 °C overnight to lyse all red blood cells. The following day, the plates were thawed at room temperature, 100 µL of each well was transferred into a black 96-well plate to which another 100 µL of 2× PBS-diluted SYBR Green I (Sigma-Aldrich) was added and left to incubate for 2 h at room temperature prior to reading the plates on BioTek FL× 800 Microplate Fluorescence Reader (λexcitation = 485 nm, λemission = 528 nm).
(§3) IC50 values were determined using GraphPad Prism by drawing the curve % inhibition vs. [Drug] and using a four-parameter dose–response curve with the following equation: Y=Bottom+ Top−Bottom/1+x^Hill Slope/IC50Hill Slope

[2] = test system: P. falciparum F32-ART5 (artemisinin-resistant strain); test: Standard chemosensitivity assay (SYBR Green I), F32-ART5; assay type: cell-based, Plasmodium falciparum; conditions: Plasmodium falciparum, F32, 48 h, read-out: P. falciparum Strains Mean IC50, F32-ART5, 48 h; ^1 n = 1, ^2 n = 2
Procedure: as §1, §2, §3

[3] = test system: P. falciparum chloroquine-resistant strain FcB1-Columbia; test: Antiplasmodial screen at 10 µM and chemosensitivity assay (SYBR Green I), FcB1-Columbia; assay type: cell-based, Plasmodium falciparum
Cytotoxicity assay (MTT) = conditions: African green monkey
Procedure: (§4) Vero cells were cultured in MEM (Dutscher, Brumath, France) supplemented with 10% fetal bovine serum, 1× non-essential amino acids, 100 U/mL, 100 µg/mL penicillin/streptomycin, and 2 mM L-glutamine at 37 °C in a humidified 5% CO2 atmosphere. […] At this time, each well was microscope-examined for detection of possible precipitate formation prior to remove the supernatant by flicking the plate. 100 µL of a 0.5 mg/mL PBS-dissolved MTT tetrazolium (stock solution at 5 mg/mL) was then added to each well [48]. The plates were then incubated for 1 h at 37 °C and 5% CO2 prior to removing the supernatant and adding 100 µL of DMSO. Plates were gently shaken to dissolve formazan crystals resulting from the MTT tetrazolium reduction by living cells and read at 570 nm with BioTek µQuant Microplate Spectrophotometer.

Vero cells = test: Cytotoxicity assay (MTT); conditions: ratio cytotoxicity (Vero)/activity on Plasmodium
Procedure: as §4

[4] = Homolysis of the NO–C bond measured by EPR
Procedure: Homolysis rate constants kd’ were measured by EPR and estimated using Equation (1) as reported many times in the literature. Further, Ea and kd were estimated using Equation (2). (1) ln([nitroxide]∞−[nitroxide]t/[nitroxide]∞)=−kd·t (2) Ea=−RT ln([…] kd′ )

[5] = test system: P. falciparum F32-ART5 (artemisinin-resistant); test: Recrudescence assay, F32-ART5; assay type: cell-based, Plasmodium falciparum; conditions: artemisinin 18 µM, (RS/SR)-2F 5 µM; for Median (Range) Recrudescence Time, F32-ART5: 48 h treatment, followed 30 days
Procedure: (§5) The lead compound, (RS/SR)-2F, was tested in a recrudescence assay, to assess cross-resistance with artemisinin, according to Ménard et al.. Briefly, F32-TEM and F32-ART5 parasites were synchronized at ring-stage by D-sorbitol treatment prior to treating them with the drug of interest for 48 h, then washed and allowed to grow in drug-free medium. Parasitemia was monitored every other day for 30 days to determine the day when parasite cultures reached the t0 initial parasitemia. […] Artemisinin was used as control to confirm differences in recrudescence times between both strains. Three independent experiments were performed for (RS/SR)-2F and artemisinin tested in parallel.

[6] = test system: P. falciparum F32-TEM (artemisinin-sensitive); test: Recrudescence assay, F32-TEM; assay type: cell-based, Plasmodium falciparum; conditions: 48 h treatment; artemisinin 18 µM, (RS/SR)-2F 5 µM; followed 30 days
Procedure: as §5

[7] = design: method as in PMID 23051106, doi:10.1039/c2py20447a; conditions: cited from earlier work
[8] = F32, 48 h, read-out: P. falciparum Strains Mean IC50, F32-TEM, 48 h, ^1 n = 1, ^2 n = 2
[9] = Plasmodium falciparum, FcB1-Columbia strain, read-out: IC50 on P. falciparum
[10] = read-out: IC50 on P. falciparum, FcB1-Columbia strain
[11] = Cytotoxicity Mean IC50, Vero cell lines, 48 h, MTT

In the case of CC(ON1C(C)(C)CC(O)CC1(C)C)c1cc(-c2ccccn2)nc(-c2ccccn2)c1 (racemic) [(R/S)-8F, 1-(1-([2,2′:6′,2′′-Terpyridin]-4′-yl)ethoxy)-2,2,6,6-tetramethylpiperidin-4-ol], the “Time for the death of 100% worms” value (Adult S. mansoni; 100 µg/mL) is reported as 5 h, the “S. mansoni Mean Survival Time” value (Adult S. mansoni) is reported as 5.0 ± 0.0 h and the IC50 [1, 8] is reported as 1.3 µM. The IC50 ([1]; F32, read-out: IC50 on the F32 strains, F32-TEM and F32-ART5 taken together) was ~1 µM, the IC50 [2] was 1.1 µM and the IC50 [3, 9] was 0.14 µM. The IC50 at 48 h (Cytotoxicity assay (MTT); Vero cells) was 0.7 ± 0.4 µM, the “Selectivity Index” value (Vero cells) was 0.5 and the “activation energy Ea” value ([4]; t-BuPh) was 133.3 ^k kJ/mol. The “re-estimated homolysis rate constant kd at 120 °C” value ([4]; t-BuPh) was 0.46 10^−3 s^−1, the “homolysis rate constant kd′” value ([4]; t-BuPh, 111 °C) was 1.9 10^−4s^−1 and the half-life ([4]; tert-butylbenzene, half-lifetime t1/2 at 37 °C, t-BuPh) was 941 days. The half-life ([4]; tert-butylbenzene, t1/2 at 37 °C) was 913 days.
In the case of CCOP(=O)(OCC)C(N(OC(C)c1cc(-c2ccccn2)nc(-c2ccccn2)c1)C(C)(C)CO)C(C)(C)C (stereo not drawn) [(RS/SR)-2F, Diethyl(1-((1-([2,2′:6′,2′′-terpyridin]-4′-yl)ethoxy)(1-hydroxy-2-methylpropan-2-yl)amino)-2,2-dimethylpropyl)phosphonate], the “S. mansoni Mean Survival Time” value (Adult S. mansoni) is reported as 2.1 ± 0.1 h, the IC50 [1, 8] is reported as 0.6 ± 0.1 µM and the IC50 [2] is reported as 0.5 ± 0.1 µM. For the same compound, the IC50 [3, 10] was 0.3 µM, the IC50 at 48 h (Cytotoxicity assay (MTT); [11]) was 0.8 ± 0.3 µM and the “Selectivity Index” value (Vero cells) was 1. For the same compound, the “Median (Range) Recrudescence Time, F32-ART5” value [5] was 16 (15–17) Days, the “Median (Range) Recrudescence Time, F32-TEM” value [6] was > 30 days and the “activation energy Ea” value ([4]; MeOH/water 1:1 pH = 7.4) was 118.2 kJ/mol. The “re-estimated homolysis rate constant kd at 120 °C” value ([4]; MeOH/water 1:1 pH = 7.4) was 46.7 10^−3 s^−1, the “half-lifetime t1/2 at 37 °C” value ([4]; MeOH/water 1:1 pH = 7.4 (aqueous medium)) was 64.8 h and the “homolysis rate constant kd′” value ([4]; MeOH/water 1:1 pH = 7.4, 81 °C) was 8.7 10^−4s^−1. The half-life ([4]; buffer, pH 7.4, half-lifetime t1/2 at 37 °C, MeOH/water 1:1 pH = 7.4 (aqueous medium)) was 2 to 4 days, the half-life ([4]; half-lifetime t1/2 at 37 °C, t-BuPh) was 3 to 5 days and the “activation energy Ea” value ([4]; t-BuPh) was 119.7 kJ/mol. For the same compound, the “half-lifetime t1/2 at 37 °C” value ([4]; t-BuPh) was 115 h, the “re-estimated homolysis rate constant kd at 120 °C” value ([4]; t-BuPh) was 29.9 10^−3 s^−1 and the “homolysis rate constant kd′” value ([4]; t-BuPh, 81 °C) was 5.3 10^−4s^−1.
In the case of CCOP(=O)(OCC)[C@@H](N(O[C@H](C)c1ccncc1)C(C)(C)C)C(C)(C)C (relative stereo) [(RR/SS)-1a], the “Mean (±SD) survival time – Adult S. mansoni” value (Adult S. mansoni; 100 µg/mL, observation up to 8 h (Table S1)) is reported as > 8 h, the “Time for the death of 100% worms” value (Adult S. mansoni; 100 µg/mL) is reported as > 8 h and the “S. mansoni Mean Survival Time” value (Adult S. mansoni) is reported as >8 h. For the same compound, the IC50 [1, 8] was 15 µM, the IC50 [2] was 16 µM and the IC50 at 48 h (Cytotoxicity assay (MTT); [11]) was 17 ± 7 µM. The “Selectivity Index” value (Vero cells) was 1, the “T1/2 in vitro at 37 °C” value ([7]; aqueous medium) was 48 to 96 h and the “T1/2 in vitro at 37 °C” value ([7]; tert-butylbenzene) was 408 h.
For C[C@@H]1CC[C@H]2[C@@H](C)C(=O)O[C@@H]3O[C@@]4(C)CC[C@@H]1[C@]32OO4 [Artemisinin, reference compound], the IC50 [1, 8] was 0.02 ± 0.001 µM, the IC50 [2] was 0.02 ± 0.002 µM and the IC50 [3, 9] was 0.04 ± 0.007 µM. For the same compound, the IC50 at 48 h (Cytotoxicity assay (MTT); Vero cells) was 160 ± 12 µM, the “Selectivity Index” value (Vero cells) was 8000 and the “Median (Range) Recrudescence Time, F32-ART5” value [5] was 9 (7–11) Days. The “Mean ± SEM Difference of Recrudescence Time” value ([5]; F32-TEM versus F32-ART5) was > 16.3 ± 3.7 days and the “Median (Range) Recrudescence Time, F32-TEM” value [6] was > 30 (16→30) Days.
With CCOP(=O)(OCC)[C@@H](N(O[C@@H](C)c1ccncc1)C(C)(C)C)C(C)(C)C (relative stereo) [(RS/SR)-1a] the “S. mansoni Mean Survival Time” value (Adult S. mansoni) was 1.2 ± 0.1 h, the IC50 [1, 8] was 7.6 µM and the IC50 [2] was 11 µM. For the same compound, the IC50 ([3]; Plasmodium falciparum, FCB1, read-out: IC50 on P. falciparum, FcB1-Columbia strain) was 3.8 µM, the IC50 [3, 10] was > 3 µM and the IC50 at 48 h (Cytotoxicity assay (MTT); [11]) was 28 ± 29 µM. For the same compound, the “Selectivity Index” value (Vero cells) was 3, the “T1/2 in vitro at 37 °C” value ([7]; aqueous medium) was 48 to 96 h and the “T1/2 in vitro at 37 °C” value ([7]; tert-butylbenzene) was 408 h.
